In assay [1] the target is T1, C-C chemokine receptor type 5 (Homo sapiens, UniProt P51681). Briefly: Ability to inhibit binding of [125I]-MIP-1 alpha to C-C chemokine receptor type 5 in Chinese hamster ovary (CHO) cell membranes.
For assay [2], the target named is T1, C-C chemokine receptor type 5. Briefly: Ability to inhibit binding of [125I]-MIP-1 alpha to C-C chemokine receptor type 5 in Chinese hamster ovary (CHO) cell membranes;NA means no significant activity.
Assay [3] shares this target. As to the kind of experiment: Ability to inhibit binding of [125I]-MIP-1 alpha to C-C chemokine receptor type 5 in Chinese hamster ovary (CHO) cell membranes.
Assay [4] deals with Human immunodeficiency virus 1. Briefly: Inhibitory concentration for viral growth over 7 days vs YU-2 strain of HIV-1;NA means No significant activity at 10 uM. The class given is functional, organism-based.
Assay [5] concerns Human immunodeficiency virus 1. Briefly: Inhibitory concentration for viral growth over 7 days vs YU-2 strain of HIV-1 at 10 uM. Format: functional. As to conditions: Human immunodeficiency virus 1, 168 h.

Structures are written as SMILES. Active and inactive are the calls of the source. The calls are words filed in the database; no cut-off is given here.

T1 sequence (P51681 whole entry): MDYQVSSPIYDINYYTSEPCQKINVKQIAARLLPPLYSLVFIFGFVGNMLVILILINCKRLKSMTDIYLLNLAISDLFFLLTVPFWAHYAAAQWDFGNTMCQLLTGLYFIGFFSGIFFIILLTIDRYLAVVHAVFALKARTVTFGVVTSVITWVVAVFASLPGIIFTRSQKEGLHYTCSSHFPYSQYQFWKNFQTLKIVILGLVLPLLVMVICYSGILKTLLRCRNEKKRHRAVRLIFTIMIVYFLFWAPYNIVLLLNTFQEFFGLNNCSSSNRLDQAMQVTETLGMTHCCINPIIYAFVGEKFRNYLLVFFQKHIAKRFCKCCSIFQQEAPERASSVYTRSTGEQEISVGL

The compound `O=S(=O)(c1cccs1)N1CC(CN2CCC(O)(CCCc3ccccc3)CC2)[C@@H](c2ccccc2)C1` (stereo partly specified) yielded an IC50 in assay [1] of 20 nM.

With `CN(CC1CCCCC1)CC(CCN1CCC(CCCc2ccccc2)CC1)c1ccccc1` (stereo unspecified), the IC50 entry in assay [2] is listed as “Not Active”.

In assay [3], `CN(CC(CCN1CCC(CCCc2ccccc2)CC1)c1ccccc1)S(=O)(=O)c1cccs1` (stereo unspecified) registered an IC50 of 3 nM. Further, the IC95 result in assay [4] is “inactive”.

For the compound `CN(CC(CCN1CCC(CCCc2ccccc2)CC1)c1ccccc1)S(=O)(=O)c1ccc(-c2ccccn2)s1` (stereo unspecified), the IC50 in assay [3] came out at 2 nM. For the same compound, the 95% effect level in assay [5] (IC95) was put at 3100 nM.

With `O=S(=O)(c1ccc(-c2ccccn2)s1)N1C[C@H](CN2CCC(O)(CCCc3ccccc3)CC2)[C@@H](c2ccccc2)C1`, the IC50 in assay [1] turned out to be 41 nM.

With `CN(CC(CCN1CCC(O)(CCCc2ccccc2)CC1)c1ccccc1)S(=O)(=O)c1cccs1` (stereo unspecified), the IC50 in assay [3] came out at 6.5 nM. This counts as single-digit nanomolar.

In assay [1], `c1ccc(CCCC2CCN(C[C@H]3CN(CC4CCCCC4)C[C@@H]3c3ccccc3)CC2)cc1` registered an IC50 of 6.5 nM.

`CN(CC(CCN1CCC(O)(CCCc2ccccc2)CC1)c1ccccc1)S(=O)(=O)c1ccc(-c2ccccn2)s1` (stereo unspecified) displayed an IC50 in assay [3] of 4 nM. Besides, it took 6200 nM to reach the 95% level in assay [5] (IC95).

Turning to `CN(CC1CCCCC1)CC(CCN1CCC(O)(CCCc2ccccc2)CC1)c1ccccc1` (stereo unspecified), the IC50 result in assay [2] is reported as “Not Active”.

`O=S(=O)(c1cccs1)N1C[C@H](CN2CCC(CCCc3ccccc3)CC2)[C@@H](c2ccccc2)C1` gave an IC50 in assay [1] of 25 nM.

With `OC1(CCCc2ccccc2)CCN(C[C@H]2CN(CC3CCCCC3)C[C@@H]2c2ccccc2)CC1`, the concentration for half-maximal inhibition (IC50) in assay [1] came to 1 nM. The same compound returned a concentration for an effect of 95% (IC95) in assay [5] of 580 nM.

Take `O=S(=O)(c1ccc(-c2ccccn2)s1)N1C[C@H](CN2CCC(CCCc3ccccc3)CC2)[C@@H](c2ccccc2)C1`: the IC50 in assay [1] stood at 60 nM.

(Values after ChEMBL document CHEMBL1134148, “Combinatorial synthesis of CCR5 antagonists” (Bioorg Med Chem Lett, 2001).)
